Results published in publication doi:10.1101/307710v1, “Assignment of the resting state of the secondary active transporter BetP by integrating spectroscopic measurements and molecular simulations” (biorxiv, 2018).

Molecular target: T1, BetP (Corynebacterium glutamicum, UniProt P54582)
T1 construct: plasmid pASK-IBA5betP, Strep-Tactin purified from E. coli DH5alpha-T1, reconstituted in E. coli polar lipid liposomes; homotrimer
T1 sequence (P54582 1-595): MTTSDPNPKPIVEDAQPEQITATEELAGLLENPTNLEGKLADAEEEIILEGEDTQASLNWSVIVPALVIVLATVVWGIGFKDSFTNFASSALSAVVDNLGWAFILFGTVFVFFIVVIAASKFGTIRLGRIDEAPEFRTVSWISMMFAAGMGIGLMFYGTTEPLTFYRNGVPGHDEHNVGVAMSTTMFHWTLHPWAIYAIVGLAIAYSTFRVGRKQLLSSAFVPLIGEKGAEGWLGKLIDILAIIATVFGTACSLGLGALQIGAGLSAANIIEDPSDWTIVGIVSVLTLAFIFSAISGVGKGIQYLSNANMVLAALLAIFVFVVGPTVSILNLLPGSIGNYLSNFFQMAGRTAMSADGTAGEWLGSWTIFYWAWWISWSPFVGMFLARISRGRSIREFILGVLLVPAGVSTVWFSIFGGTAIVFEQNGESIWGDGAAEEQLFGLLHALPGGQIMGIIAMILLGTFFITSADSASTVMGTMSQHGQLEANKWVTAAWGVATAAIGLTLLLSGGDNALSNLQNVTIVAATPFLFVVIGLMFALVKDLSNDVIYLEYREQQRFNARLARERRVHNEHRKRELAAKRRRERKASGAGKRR
Test: […]-betaine uptake into proteoliposomes
Assay type: biochemical
Settings: labelled compound; 50 uM betaine, 25 mM NaCl, pH 7.5, 0.6 osmol/kg, valinomycin

## C[N+](C)(C)CC(=O)[O-] [betaine]
  [14C]-betaine uptake into proteoliposomes: the activity of G450R5/S516R5 is only slightly decreased compared to the wildtype
